Where “and” joins values, the source holds several entries; their conditions need not be identical. Equal entries are not always repeated. No end group written: not given here.
Tested on: primary CD14+ blood monocytes
Experiment: Cytokine response by multiplex xMAP, monocytes
Type: cell-based, human
Conditions: 2 µM, 24 h
Protocol: Colorectal adenocarcinoma Caco-2 cell line (ATCC HTB-37) was cultured in complete DMEM/F12 (1:1) medium containing 10% fetal bovine serum (FBS, Gibco) and 1X antibiotic-antimycotic solution (1XAAS, Invitrogen, Waltham, MA, USA). The acute monocytic leukemia THP-1 line (ATCC TIB-202) was cultured in complete RPMI-1640 medium, containing 10% FBS, 1XAAS, and […]. THP-1 cells were differentiated into pro-inflammatory macrophages (Mφ1) with phorbol 12-myristate 13-acetate (Sigma-Aldrich) for 24 h and subsequently polarized with lipopolysaccharide from E. coli (Sigma-Aldrich) and rhIFN-γ (Sigma-Aldrich) for another 48 h according to previously reported protocol. All cells were cultured in a humidified CO2 incubator (5% CO2, 37 °C). Primary peripheral blood mononuclear cells (PBMCs) collected from a healthy donor were purchased from American Type Culture Collection (ATCC PCS-800-011). CD4^+ T-helper and CD8^+ T cytotoxic cells were isolated from PBMCs by magnetic separation with mouse anti-human CD4-PE (clone 13B8.2, Beckman Coulter Diagnostics, Pasadena, CA, USA) and CD8-PE (clone REA734, Miltenyi Biotec, Bergisch Gladbach, Germany), Anti-PE MicroBeads (Miltenyi Biotec), and LS Separation Columns (Miltenyi Biotec). Isolated CD4^+ and CD8^+ cells were expanded separately with Dynabeads™ Human T-Expander CD3/CD28 (Gibco, Waltham, MA, USA) in RPMI-1640 supplemented with 10% FBS, 1XAAS and 100 U/mL rh-IL-2 (Gibco). Regulatory CD4^+ FoxP3^+ T cells (Tregs) were isolated from PBMCs by magnetic separation with CD4^+CD25^+ Regulatory T Cell Isolation Kit, human (Miltenyi Biotec). Primary CD14^+ blood monocytes were isolated from PBMCs by adherence according to standard technique. Monocyte-derived mature dendritic cells (moDCs) were obtained from CD14^+ blood monocytes according to the previously reported protocol. Briefly, blood monocytes were incubated in complete RPMI-1640 medium, containing 10% FBS, 1XAAS, 800 U/mL rhGM-CSF (Sci-Store, Russia, Moscow) and 500 U/mL rhIL-4 (Sci-Store) for 3 days. Fresh complete RPMI-1640 medium with rhGM-CSF and rhIL-4 was added to the culture on day 3. On day 5, fresh complete RPMI-1640 containing 100 U/mL rhTNF-α (Sigma) as well as 800 U/mL rhGM-CSF and 500 U/mL rhIL-4 was added and the culture was incubated for another 4 days until full maturation.
Caco-2 cells were seeded into the wells of a 48-well plate, coated with 0.1% bovine collagen (Sigma-Aldrich) for 24 h, 3 weeks before the experiment with complete DMEM/F12 (1:1) medium renewal every 2–3 days. Monocytes, moDCs, CD4^+ T-helper and CD8^+ T cytotoxic cells, Mφ1, and Regulatory CD4^+ FoxP3^+ T cells were seeded into the wells of 48-well plates in the complete RPMI-1640 medium supplemented with 10% Human AB serum (HABS, Capricorn Scientific, Ebsdorfergrund, Germany) and 1XAAS 24 h prior to the experiment; medium in Caco-2-containing wells was also replaced with the same medium. After 24 h, half of the medium in each well was replaced by fresh complete RPMI-1640 medium with 10% HABS, supplemented with 4 µM of Lc-def for the sample wells or fresh medium alone for the control wells. Cell cultures were kept in CO2-incubator (5% CO2, 37 °C) for another 24 h. Culture supernatants were collected 24 h later and stored at −70 °C degrees less than one month prior to the analytes assessment. […]

Q: “Lc-def: defensin from lentil Lens culinaris seeds (UniProt:B3F051), recombinant, overexpressed in Escherichia coli (KTCENLSDSFKGPCIPDGNCNKHCKEKEHLLSGRCRDDFRCWCTRNC; disulfide (positions not given here); ends not checked; also: disulfide bonds present, pairing not given here; UniProt B3F051 28-74, looked up)” was tested. Which EGF did it give?
A: 11.56 pg/mL

Q: What about the Eotaxin of the same substance?
A: <3.23↓ pg/ml

Q: And the FGF-2?
A: 44.46 pg/mL

Q: And the FLT-3L?
A: 1.04 pg/mL

Q: What about the Fractalkine of the same substance?
A: <23.19↓ pg/ml

Q: And the G-CSF?
A: 22.68 pg/mL

Q: What about the GM-CSF of the same substance?
A: 3.49 pg/mL

Q: What about the GROa of the same substance?
A: 777.01 pg/mL

Q: And the IFNa2?
A: 21.43 pg/mL

Q: And the IFNg?
A: <1.99↓ pg/ml

Q: And the IL-1RA?
A: 10.83 pg/mL

Q: And the IL-1a?
A: 17.69 pg/mL

Q: And the IL-1b?
A: <18.72↓ pg/ml

Q: What about the IL-2 of the same substance?
A: 2.62 pg/mL

Q: What about the IL-3 of the same substance?
A: <0.48↓ pg/ml

Q: What about the IL-4 of the same substance?
A: 0.58 pg/mL

Q: What about the IL-5 of the same substance?
A: <0.24↓ pg/ml

Q: And the IL-6?
A: 378 pg/mL and 378.12 pg/mL

Q: What about the IL-7 of the same substance?
A: <0.33↓ pg/ml

Q: What about the IL-8 of the same substance?
A: 5662 pg/mL

Q: And the IL-9?
A: 1.6 pg/mL

Q: And the IL-10?
A: 8.4 pg/mL

Q: What about the “IL-12 (p40)” value of the same substance?
A: 19.56 pg/mL

Q: What about the “IL-12 (p70)” value of the same substance?
A: 2.22 pg/mL

Q: What about the IL-13 of the same substance?
A: 15.11 pg/mL

Q: And the IL-15?
A: 3.53 pg/mL

Q: And the IL-17A?
A: 2.6 pg/mL

Q: And the IL-17E/IL-25?
A: <20.59↓ pg/ml

Q: And the IL-17F?
A: <16.96↓ pg/ml

Q: And the IL-18?
A: 2.04 pg/mL

Q: What about the IL-22 of the same substance?
A: 17.03 pg/mL

Q: And the IL-27?
A: 60.93 pg/mL

Q: What about the IP-10 of the same substance?
A: 529.41 pg/mL

Q: And the M-GSF?
A: 38.29 pg/mL

Q: And the MCP-1?
A: 5545 pg/mL

Q: What about the MCP-3 of the same substance?
A: 326 pg/mL and 326.33 pg/mL

Q: What about the MDC of the same substance?
A: 995.8 pg/mL

Q: What about the MIG of the same substance?
A: 1406 pg/mL

Q: What about the MIP-1a of the same substance?
A: 14.98 pg/mL

Q: And the MIP-1b?
A: 42.32 pg/mL

Q: And the PDGF-AB/BB?
A: 943.35 pg/mL

Q: And the RANTES?
A: 5.41 pg/mL

Q: And the TGF-a?
A: 1.79 pg/mL

Q: And the TNFa?
A: 27.51 pg/mL

Q: What about the TNFb of the same substance?
A: 1.77 pg/mL

Q: And the VEGFa?
A: 21.72 pg/mL

Q: And the sCD40L?
A: 65.54 pg/mL

Reference: PMC9503459, “Antifungal Activity, Structural Stability, and Immunomodulatory Effects on Human Immune Cells of Defensin from the Lentil Lens culinaris” (Membranes, 2022)
